Reference: patent US20120270237A9, “METHODS FOR THE IDENTIFICATION OF KINASE INTERACTING MOLECULES AND FOR THE PURIFICATION OF KINASE PROTEINS” (Cellzone AG, priority 2009, published 2012)

Columns and labels:
[1] = molecular target: T1, kinases from mixed HeLa placenta lysates (Homo sapiens, UniProt P54646); experiment: Kinobeads competition binding with immobilized CZC25342, mixed HeLa placenta lysates (Example 5, Table 7); conditions: kinase AMPKa2; 10 μM free compound; HeLa Placenta lysate mix
T1 construct: capturing and identification of kinases from mixed HeLa placenta lysates; endogenous in cells; host or cells: mixed lysate of HeLa cells and placenta tissue
Procedure: (§1) To one aliquot of cell lysate 10 μM of the free compound (FIG. 2, CZC25342) was added and allowed to bind to proteins in the lysate. Then the affinity matrix with the immobilized compound was added to capture proteins that were not interacting with the previously added free compound. Beads were separated from the lysate and bead bound proteins were eluted in SDS sample buffer and subsequently separated by SDS-Polyacrylamide gel electrophoresis (FIG. 11). Suitable gel bands were cut out and subjected to in-gel proteolytic digestion with trypsin. The second lysate aliquot was processed identically, however no free compound was added (DMSO solvent control). Peptides originating from samples 1 and 2 were labeled with iTRAQ reagents (iTRAQ 114 and iTRAQ 117) and the combined samples were analyzed with a nano-flow liquid chromatography system coupled online to a tandem mass spectrometer (LC-MS/MS) experiment followed by iTRAQ reporter ion quantification in the MS/MS spectra as described in Example 2. The identified kinases are shown in Table 7 including the percent competition values for the sample to which 10 μM free compound had been added. In total of 83 different kinases were identified and competed by different degrees.

[2] = molecular target: T2, kinases from mixed HeLa placenta lysates (Homo sapiens, UniProt P08581); experiment: as above; conditions: kinase MET; 10 μM free compound; HeLa Placenta lysate mix
T2 construct: capturing and identification of kinases from mixed HeLa placenta lysates; endogenous in cells; host or cells: mixed lysate of HeLa cells and placenta tissue
Procedure: as §1

[3] = molecular target: T3, kinases from mixed HeLa placenta lysates (Homo sapiens, UniProt P27448); experiment: as above; conditions: kinase MARK3; 10 μM free compound; HeLa Placenta lysate mix
T3 construct: capturing and identification of kinases from mixed HeLa placenta lysates; endogenous in cells; host or cells: mixed lysate of HeLa cells and placenta tissue
Procedure: as §1

[4] = molecular target: T4, kinases from mixed HeLa placenta lysates (Homo sapiens, UniProt P49840); experiment: as above; conditions: kinase GSK3A; 10 μM free compound; HeLa Placenta lysate mix
T4 construct: capturing and identification of kinases from mixed HeLa placenta lysates; endogenous in cells; host or cells: mixed lysate of HeLa cells and placenta tissue
Procedure: as §1

[5] = molecular target: T5, kinases from mixed HeLa placenta lysates (Homo sapiens, UniProt P19784); experiment: as above; conditions: kinase CK2a2; 10 μM free compound; HeLa Placenta lysate mix
T5 construct: capturing and identification of kinases from mixed HeLa placenta lysates; endogenous in cells; host or cells: mixed lysate of HeLa cells and placenta tissue
Procedure: as §1

AMPKa1 = AMPKa1 (Homo sapiens, UniProt Q13131); experiment: Kinobeads competition binding, HL60 cell lysate; parameters: endogenous in cells; host or cells: HL60 cells; conditions: 10 μM free compound
Procedure: (§2) To one aliquot of cell lysate 10 μM of the free compound (FIG. 3, CZC31326) was added and allowed to bind to proteins in the lysate. Then the affinity matrix with the immobilized compound (Example 1) was added to capture proteins that were not interacting with the previously added free compound. Beads were separated from the lysate and bead bound proteins were eluted in SDS sample buffer and subsequently separated by SDS-Polyacrylamide gel electrophoresis (FIG. 4). Suitable gel bands were cut out and subjected to in-gel proteolytic digestion with trypsin. The second lysate aliquot was processed identically, however no free compound was added (DMSO solvent control). Peptides originating from samples 1 and 2 were labeled with iTRAQ reagents (iTRAQ 114 and iTRAQ 117) and the combined samples were analyzed with a nano-flow liquid chromatography system coupled online to a tandem mass spectrometer (LC-MS/MS) experiment followed by iTRAQ reporter ion quantification in the MS/MS spectra (Ross et al., 2004. Mol. Cell. Proteomics 3(12):1154-1169). Further experimental protocols can be found in WO2006/134056 and a previous publication (Bantscheff et al., 2007. Nature Biotechnology 25, 1035-1044). Sepharose-beads with the immobilized compound (100 μl beads per pull-down experiment) were equilibrated in lysis buffer and incubated with a cell lysate sample containing 50 mg of protein on an end-over-end shaker (Roto Shake Genie, Scientific Industries Inc.) for 2 hours at 4° C. Beads were collected, transferred to Mobicol-columns (MoBiTech 10055) and washed with 10 ml lysis buffer containing 0.4% NP40 detergent, followed by 5 ml lysis buffer containing 0.2% detergent. To elute bound proteins, 60 μl 2×SDS sample buffer was added to the column. The column was incubated for 30 minutes at 50° C. and the eluate was transferred to a siliconized microfuge tube by centrifugation. Proteins were then alkylated with 108 mM iodoacetamid. Proteins were then separated by SDS-Polyacrylamide electrophoresis (SDS-PAGE). The peptide extracts of samples treated with 10 μM of free compound (CZC31326) and the solvent control (0.5% DMSO) were treated with different variants of the isobaric tagging reagent (iTRAQ Reagents Multiplex Kit, part number 4352135, Applied Biosystems, Foster City, Calif., USA). The iTRAQ reagents are a set of multiplexed, amine-specific, stable isotope reagents that can label peptides on amino groups in up to four different biological samples enabling simultaneous identification and quantitation of peptides. The iTRAQ reagents were used according to instructions provided by the manufacturer. The samples were resuspended in 10 μl 50 mM TEAB solution, pH 8.5 and 10 μl ethanol were added. The iTRAQ reagent was dissolved in 120 μl ethanol and 10 μl of reagent solution were added to the sample. The labeling reaction was performed at room temperature for one hour on a horizontal shaker and stopped by adding 5 μl of 100 mM TEAB and 100 mM glycine in water. The two labeled sampled were then combined, dried in a vacuum centrifuge and resuspended in 10 μl of 0.1% formic acid in water. Relative protein quantitation was performed using peak areas of iTRAQ reporter ion signals essentially as described in an earlier publication (Bantscheff et al., 2007. Nature Biotechnology 25, 1035-1044).

QIK = QIK (Homo sapiens, UniProt Q9H0K1); experiment: Kinobeads competition binding, HL60 cell lysate; parameters: endogenous in cells; host or cells: HL60 cells; conditions: 10 μM free compound
Procedure: as §2

CDK5 = CDK5 (Homo sapiens, UniProt Q00535); experiment: Kinobeads competition binding, HL60 cell lysate; parameters: endogenous in cells; host or cells: HL60 cells; conditions: 10 μM free compound
Procedure: as §2

Erk1 = Erk1 (Homo sapiens, UniProt P27361); experiment: Kinobeads competition binding, HL60 cell lysate; parameters: endogenous in cells; host or cells: HL60 (DSMZ ACC3); conditions: 10 μM free compound
Procedure: (§3) To one aliquot of cell lysate 10 μM of the free compound (FIG. 3, CZC31326) was added and allowed to bind to proteins in the lysate. Then the affinity matrix with the immobilized compound (Example 1) was added to capture proteins that were not interacting with the previously added free compound. Beads were separated from the lysate and bead bound proteins were eluted in SDS sample buffer and subsequently separated by SDS-Polyacrylamide gel electrophoresis (FIG. 4). Suitable gel bands were cut out and subjected to in-gel proteolytic digestion with trypsin. The second lysate aliquot was processed identically, however no free compound was added (DMSO solvent control). Peptides originating from samples 1 and 2 were labeled with iTRAQ reagents (iTRAQ 114 and iTRAQ 117) and the combined samples were analyzed with a nano-flow liquid chromatography system coupled online to a tandem mass spectrometer (LC-MS/MS) experiment followed by iTRAQ reporter ion quantification in the MS/MS spectra (Ross et al., 2004. Mol. Cell. Proteomics 3(12):1154-1169). Further experimental protocols can be found in WO2006/134056 and a previous publication (Bantscheff et al., 2007. Nature Biotechnology 25, 1035-1044). Sepharose-beads with the immobilized compound (100 μl beads per pull-down experiment) were equilibrated in lysis buffer and incubated with a cell lysate sample containing 50 mg of protein on an end-over-end shaker (Roto Shake Genie, Scientific Industries Inc.) for 2 hours at 4° C. […] The iTRAQ reagents are a set of multiplexed, amine-specific, stable isotope reagents that can label peptides on amino groups in up to four different biological samples enabling simultaneous identification and quantitation of peptides. […] Relative protein quantitation was performed using peak areas of iTRAQ reporter ion signals essentially as described in an earlier publication (Bantscheff et al., 2007. Nature Biotechnology 25, 1035-1044).

DNAPK = DNAPK (Homo sapiens, UniProt P78527); experiment: Kinobeads competition binding, HL60 cell lysate; parameters: endogenous in cells; host or cells: HL60 (DSMZ ACC3); conditions: 10 μM free compound
Procedure: as §3

FER = FER (Homo sapiens, UniProt P16591); experiment: Kinobeads competition binding, HL60 cell lysate; parameters: endogenous in cells; host or cells: HL60 (DSMZ ACC3); conditions: 10 μM free compound
Procedure: as §3

CS(=O)(=O)Nc1ccccc1Nc1nc(Nc2cccc(OCCN)c2)ncc1F [CZC25342, N-(2-(2-(3-(2-aminoethoxy)phenylamino)-5-fluoropyrimidin-4-ylamino)phenyl)methanesulfonamide]
Competition % AMPKa2 [1]: 97.1% | Competition % MET [2]: 94.2% | Competition % MARK3 [3]: 96.2% | Competition % GSK3A [4]: 94.6% | Competition % CK2a2 [5]: 95.4%

CS(=O)(=O)Nc1ccccc1Nc1nc(Nc2cccc(OCCN)c2)ncc1Cl [CZC31326, N-(2-(2-(3-(2-aminoethoxy)phenylamino)-5-chloropyrimidin-4-ylamino)phenyl)methanesulfonamide]
inhibition at 10 µM (AMPKa1): 97.7% | inhibition at 10 µM (QIK): 94.2% | inhibition at 10 µM (CDK5): 95.2% | inhibition at 10 µM (Erk1): 84.8% | inhibition at 10 µM (DNAPK): 75.5% | inhibition at 10 µM (FER): 97.7%
